Experimental data reported in PMC12571850 (Frontiers in Pharmacology, 2025).

How the values were obtained:
Ba/F3-KIF5B-RET = experiment: Cell proliferation (Celltiter-Glo), Ba/F3-KIF5B-RET; format: cell-based; conditions: anti-proliferative, read-out: IC50 (nM, mean ± SD)
Method: (§1) Ba/F3-KIF5B-RET, Ba/F3-CCDC6-RET, Ba/F3-KIF5B-RET-V804L, Ba/F3-KIF5B-RET-V804M, Ba/F3-KIF5B-RET-G810R, and Ba/F3-KIF5B-RET-G810S cells were provided by Kyinno Biotechnology Co., Ltd. The cells were cultured in RPMI 1640 (Biological Industries, Israel) supplemented with 10% fetal bovine serum (Biological Industries, Israel) and 1% Penicillin/Streptomycin solution (Corning, United States). They were incubated at 37 °C in a humidified atmosphere containing 5% CO2, and cell proliferation was evaluated using the Celltiter-Glo luminescent cell viability assay.

Ba/F3-KIF5B-RET-V804L = experiment: Cell proliferation (Celltiter-Glo), Ba/F3-KIF5B-RET-V804L; format: cell-based; conditions: anti-proliferative, read-out: IC50 (nM, mean ± SD)
Method: as §1

Ba/F3-KIF5B-RET-V804M = experiment: Cell proliferation (Celltiter-Glo), Ba/F3-KIF5B-RET-V804M; format: cell-based; conditions: anti-proliferative, read-out: IC50 (nM, mean ± SD)
Method: as §1

Ba/F3-KIF5B-RET-G810R = experiment: Cell proliferation (Celltiter-Glo), Ba/F3-KIF5B-RET-G810R; format: cell-based; conditions: anti-proliferative, read-out: IC50 (nM, mean ± SD)
Method: as §1

Ba/F3-KIF5B-RET-G810S = experiment: Cell proliferation (Celltiter-Glo), Ba/F3-KIF5B-RET-G810S; format: cell-based; conditions: anti-proliferative, read-out: IC50 (nM, mean ± SD)
Method: as §1

Ba/F3-CCDC6-RET = experiment: Cell proliferation (Celltiter-Glo), Ba/F3-CCDC6-RET; format: cell-based; conditions: BaF3/CCDC6-RET, anti-proliferative, read-out: IC50 (nM, mean ± SD)
Method: as §1

Ba/F3-KIF5B-RET tumor = experiment: Ba/F3-KIF5B-RET xenograft mouse model; format: in vivo; conditions: 3 mg/kg p.o. BID, B-NDG mice
[1] = system: Ba/F3-KIF5B-RET-V804L tumor; experiment: Ba/F3-KIF5B-RET-V804L xenograft mouse model; format: in vivo; conditions: 3 mg/kg p.o. BID, NPSG mice
[2] = system: Ba/F3-KIF5B-RET-G810S tumor; experiment: Ba/F3-KIF5B-RET-G810S xenograft mouse model; format: in vivo; conditions: 10 mg/kg p.o. BID, NOD SCID mice
[3] = system: Ba/F3-KIF5B-RET-G810R tumor; experiment: Ba/F3-KIF5B-RET-G810R xenograft mouse model; conditions: 10 mg/kg p.o. BID days 0–16, NOD SCID mice

IC50 (Ba/F3-KIF5B-RET): 11.5 ± 4.31 nM
IC50 (Ba/F3-KIF5B-RET-V804L): 16.2 ± 3.22 nM
IC50 (Ba/F3-KIF5B-RET-V804M): 65.3 ± 20.7 nM
IC50 (Ba/F3-KIF5B-RET-G810R): 734 ± 56.1 nM
IC50 (Ba/F3-KIF5B-RET-G810S): 125 ± 19.7 nM
IC50 (Ba/F3-CCDC6-RET): 70.3 ± 0.91 nM
SMILES: COc1ccc(CN2C3CC2CN(c2ccc(-c4cc(OCC(C)(C)O)cn5ncc(C#N)c45)cn2)C3)cn1 [Selpercatinib]
tumor growth inhibition (TGI) (Ba/F3-KIF5B-RET tumor): 57.06%
TGI [1]: 79.48%
TGI [2]: 82.15%
TGI [3]: 35.37%
